From the supplement of paper PMC12463676, “Small-molecule dissolution of stress granules by redox modulation benefits ALS models” (Nature Chemical Biology, 2025)

Assays:
[1] = compound: O=[As]([O-])(O)O.[K+] [potassium arsenate]; test: thermal stability z-score vs DMSO; higher = more thermally stabilized by treatment; settings: HeLa; arsenate concentration 1 mM
Description: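 Cellular thermal proteome profiling in HeLa cells treated with 1 mM arsenate for 1 h (DMSO pretreatment), heated to ten temperatures (37-66.3 °C). Soluble protein was quantified by TMT mass spectrometry relative to DMSO controls; the thermal stability score was transformed to a z-score; mean of n = 3 experiments.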

[2] = compound: NC(=O)CCCCC1CCSS1 [lipoamide]; test: as above; settings: HeLa, lipoamide concentration 100 µM
Description: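 Cellular thermal proteome profiling in HeLa cells. Cells were treated with 100 µM lipoamide for 1 h, with or without 1 mM arsenate for a further 1 h, then heated to ten temperatures (37-66.3 °C), and soluble protein was quantified by TMT mass spectrometry relative to 0.1% DMSO controls. The thermal stability score (sum of log2 fold changes minus the abundance score) was transformed to a z-score; mean of n = 3 experiments.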

[3] = arsenate co-treatment: 1 mM arsenate 1 h
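Further: each temperature applied for 3 min, abundance score taken as mean log2 fold change at the two lowest temperatures, z-score obtained by mean subtraction and division by SD.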

Sequence of UniProt Q8WVB6 (Q8WVB6 whole entry): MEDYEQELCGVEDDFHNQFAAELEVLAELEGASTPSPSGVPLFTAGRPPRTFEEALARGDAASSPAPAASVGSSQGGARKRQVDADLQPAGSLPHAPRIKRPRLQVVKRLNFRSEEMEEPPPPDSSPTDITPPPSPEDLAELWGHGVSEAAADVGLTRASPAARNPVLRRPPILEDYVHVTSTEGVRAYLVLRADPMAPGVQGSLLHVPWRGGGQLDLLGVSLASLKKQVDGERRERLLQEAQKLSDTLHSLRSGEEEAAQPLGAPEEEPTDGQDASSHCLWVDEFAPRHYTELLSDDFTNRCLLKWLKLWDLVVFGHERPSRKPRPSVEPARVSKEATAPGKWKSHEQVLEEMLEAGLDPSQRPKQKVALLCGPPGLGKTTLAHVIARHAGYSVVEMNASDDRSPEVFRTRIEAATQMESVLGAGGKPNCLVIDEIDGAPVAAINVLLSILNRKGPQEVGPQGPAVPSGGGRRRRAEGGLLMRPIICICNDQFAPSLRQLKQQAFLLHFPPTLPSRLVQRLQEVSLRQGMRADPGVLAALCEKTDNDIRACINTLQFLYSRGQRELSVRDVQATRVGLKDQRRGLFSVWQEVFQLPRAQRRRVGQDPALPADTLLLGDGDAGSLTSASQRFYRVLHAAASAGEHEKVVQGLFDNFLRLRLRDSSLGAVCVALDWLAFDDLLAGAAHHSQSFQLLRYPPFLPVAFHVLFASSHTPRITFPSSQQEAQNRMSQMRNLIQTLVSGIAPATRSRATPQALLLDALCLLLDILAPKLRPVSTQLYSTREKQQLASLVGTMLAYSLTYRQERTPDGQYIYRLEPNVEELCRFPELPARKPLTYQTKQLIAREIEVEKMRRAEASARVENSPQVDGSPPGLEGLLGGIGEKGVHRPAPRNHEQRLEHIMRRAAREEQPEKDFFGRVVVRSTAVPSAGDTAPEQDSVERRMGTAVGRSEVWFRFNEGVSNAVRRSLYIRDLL
Sequence of UniProt Q9UKU7 (Q9UKU7 whole entry): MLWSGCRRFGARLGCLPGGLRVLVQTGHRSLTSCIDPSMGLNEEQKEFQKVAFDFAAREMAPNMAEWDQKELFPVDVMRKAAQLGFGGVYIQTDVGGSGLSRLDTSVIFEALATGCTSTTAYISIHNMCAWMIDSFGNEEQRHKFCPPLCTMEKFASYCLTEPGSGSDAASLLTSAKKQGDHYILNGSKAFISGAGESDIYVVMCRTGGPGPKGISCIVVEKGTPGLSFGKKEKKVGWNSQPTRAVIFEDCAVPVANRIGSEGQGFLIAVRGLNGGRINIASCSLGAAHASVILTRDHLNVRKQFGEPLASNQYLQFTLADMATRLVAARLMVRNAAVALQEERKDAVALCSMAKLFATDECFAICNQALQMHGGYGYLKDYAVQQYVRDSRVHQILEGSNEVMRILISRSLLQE
Sequence of UniProt Q02818 (Q02818 whole entry): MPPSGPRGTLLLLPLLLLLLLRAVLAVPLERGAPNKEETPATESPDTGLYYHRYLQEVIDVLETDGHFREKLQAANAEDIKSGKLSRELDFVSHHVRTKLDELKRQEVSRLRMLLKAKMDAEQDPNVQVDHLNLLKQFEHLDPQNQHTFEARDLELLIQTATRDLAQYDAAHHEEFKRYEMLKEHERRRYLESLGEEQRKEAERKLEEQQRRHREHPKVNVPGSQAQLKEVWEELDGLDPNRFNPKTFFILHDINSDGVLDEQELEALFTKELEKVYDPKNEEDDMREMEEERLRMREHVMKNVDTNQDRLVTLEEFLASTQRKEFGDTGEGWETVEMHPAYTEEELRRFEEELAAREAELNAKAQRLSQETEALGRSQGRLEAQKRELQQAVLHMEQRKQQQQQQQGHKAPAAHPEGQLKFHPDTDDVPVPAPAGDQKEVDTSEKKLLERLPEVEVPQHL
Sequence of UniProt Q8NCG7 (Q8NCG7 whole entry): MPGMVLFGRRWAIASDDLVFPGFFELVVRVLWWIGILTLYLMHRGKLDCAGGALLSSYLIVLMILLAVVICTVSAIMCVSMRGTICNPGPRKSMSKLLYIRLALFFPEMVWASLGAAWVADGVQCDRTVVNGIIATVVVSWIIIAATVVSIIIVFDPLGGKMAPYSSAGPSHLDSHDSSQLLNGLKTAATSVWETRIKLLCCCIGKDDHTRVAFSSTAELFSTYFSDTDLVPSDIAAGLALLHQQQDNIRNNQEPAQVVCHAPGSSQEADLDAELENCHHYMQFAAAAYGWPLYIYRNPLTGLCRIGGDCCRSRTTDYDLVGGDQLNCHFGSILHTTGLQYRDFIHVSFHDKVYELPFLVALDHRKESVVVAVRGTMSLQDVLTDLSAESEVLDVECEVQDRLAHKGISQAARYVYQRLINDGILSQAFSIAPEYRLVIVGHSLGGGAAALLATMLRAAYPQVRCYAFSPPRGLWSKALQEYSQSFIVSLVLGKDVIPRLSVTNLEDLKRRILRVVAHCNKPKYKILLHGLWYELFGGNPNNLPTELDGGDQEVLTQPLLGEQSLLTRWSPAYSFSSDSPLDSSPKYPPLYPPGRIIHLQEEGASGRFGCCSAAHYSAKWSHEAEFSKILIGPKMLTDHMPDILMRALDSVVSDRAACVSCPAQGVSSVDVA
Sequence of UniProt P98194 (P98194 whole entry): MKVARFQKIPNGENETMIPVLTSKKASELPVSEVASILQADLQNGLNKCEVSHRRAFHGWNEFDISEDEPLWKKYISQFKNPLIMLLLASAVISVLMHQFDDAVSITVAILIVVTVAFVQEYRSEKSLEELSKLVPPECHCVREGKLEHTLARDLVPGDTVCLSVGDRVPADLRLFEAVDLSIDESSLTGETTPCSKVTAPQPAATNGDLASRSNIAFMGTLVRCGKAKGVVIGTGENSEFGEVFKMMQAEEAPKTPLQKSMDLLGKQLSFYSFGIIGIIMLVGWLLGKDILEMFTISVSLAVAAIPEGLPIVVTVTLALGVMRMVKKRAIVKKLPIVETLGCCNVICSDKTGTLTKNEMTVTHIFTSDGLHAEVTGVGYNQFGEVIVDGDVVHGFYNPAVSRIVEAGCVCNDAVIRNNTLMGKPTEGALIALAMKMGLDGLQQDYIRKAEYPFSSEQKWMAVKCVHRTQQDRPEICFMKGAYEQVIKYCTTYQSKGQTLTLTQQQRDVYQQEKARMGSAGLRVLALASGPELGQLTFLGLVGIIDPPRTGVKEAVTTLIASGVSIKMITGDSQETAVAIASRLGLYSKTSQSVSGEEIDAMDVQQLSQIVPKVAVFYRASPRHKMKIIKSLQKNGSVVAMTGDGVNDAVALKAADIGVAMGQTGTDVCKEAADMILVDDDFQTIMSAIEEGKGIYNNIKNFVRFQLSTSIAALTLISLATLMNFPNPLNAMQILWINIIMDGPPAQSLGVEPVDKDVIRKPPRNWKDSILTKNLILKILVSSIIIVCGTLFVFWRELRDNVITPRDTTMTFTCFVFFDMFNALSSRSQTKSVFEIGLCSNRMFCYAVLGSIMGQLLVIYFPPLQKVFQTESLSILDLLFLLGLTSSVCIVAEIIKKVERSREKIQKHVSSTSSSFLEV
Sequence of UniProt P13716 (P13716 whole entry): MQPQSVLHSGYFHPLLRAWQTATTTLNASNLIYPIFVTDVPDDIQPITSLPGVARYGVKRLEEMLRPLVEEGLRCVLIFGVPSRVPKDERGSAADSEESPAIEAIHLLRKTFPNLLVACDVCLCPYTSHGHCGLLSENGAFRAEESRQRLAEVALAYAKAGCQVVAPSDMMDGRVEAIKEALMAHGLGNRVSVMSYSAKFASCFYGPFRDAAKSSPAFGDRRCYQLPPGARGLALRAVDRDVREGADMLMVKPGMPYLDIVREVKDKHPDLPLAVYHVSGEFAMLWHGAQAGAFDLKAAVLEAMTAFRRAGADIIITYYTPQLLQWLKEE
Sequence of UniProt Q9H3N1 (Q9H3N1 whole entry): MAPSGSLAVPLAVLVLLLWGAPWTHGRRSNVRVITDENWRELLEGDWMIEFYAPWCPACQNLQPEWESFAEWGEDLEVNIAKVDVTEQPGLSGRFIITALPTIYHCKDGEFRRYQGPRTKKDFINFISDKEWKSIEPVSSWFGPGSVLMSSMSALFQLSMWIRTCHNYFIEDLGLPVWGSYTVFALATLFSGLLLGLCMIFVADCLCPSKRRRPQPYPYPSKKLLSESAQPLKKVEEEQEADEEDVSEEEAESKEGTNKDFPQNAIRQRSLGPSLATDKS
Sequence of UniProt P49642 (P49642 whole entry): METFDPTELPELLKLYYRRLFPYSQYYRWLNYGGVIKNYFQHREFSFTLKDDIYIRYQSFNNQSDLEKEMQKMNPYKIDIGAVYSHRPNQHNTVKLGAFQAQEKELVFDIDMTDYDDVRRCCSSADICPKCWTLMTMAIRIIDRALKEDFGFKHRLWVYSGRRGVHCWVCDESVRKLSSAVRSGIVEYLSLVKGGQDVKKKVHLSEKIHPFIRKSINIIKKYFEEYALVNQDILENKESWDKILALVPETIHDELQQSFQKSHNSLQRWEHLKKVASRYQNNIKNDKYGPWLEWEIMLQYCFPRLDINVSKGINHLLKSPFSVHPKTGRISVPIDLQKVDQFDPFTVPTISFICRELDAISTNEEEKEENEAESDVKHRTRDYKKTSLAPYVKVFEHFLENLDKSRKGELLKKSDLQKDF
Sequence of UniProt Q01995 (Q01995 whole entry): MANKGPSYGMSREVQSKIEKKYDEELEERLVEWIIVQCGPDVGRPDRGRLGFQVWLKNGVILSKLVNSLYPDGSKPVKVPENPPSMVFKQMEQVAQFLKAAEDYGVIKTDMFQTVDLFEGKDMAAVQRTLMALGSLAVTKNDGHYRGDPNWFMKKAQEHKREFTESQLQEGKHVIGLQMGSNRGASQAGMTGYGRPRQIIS
Sequence of UniProt Q86SZ2 (Q86SZ2 whole entry): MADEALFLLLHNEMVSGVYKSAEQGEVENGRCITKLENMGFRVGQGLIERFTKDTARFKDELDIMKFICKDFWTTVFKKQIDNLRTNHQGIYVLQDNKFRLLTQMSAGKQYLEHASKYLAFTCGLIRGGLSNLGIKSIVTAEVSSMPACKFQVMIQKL

Target	thermal stability z-score [1]	thermal stability z-score [2, 3]	thermal stability z-score ([2]; arsenate co-treatment: none)
ALAD (UniProt P13716)	0.112	0.313	0.885
BCL10 (UniProt O95999)	2.16	0.00285	0.509
RCCD1 (UniProt A6NED2)	-0.297	0.452	0.179
MRPS28 (UniProt Q9Y2Q9)	-0.842	0.366	0.352
PFKFB2 (UniProt O60825)	-0.631	0.137	0.1
CHTF18 (UniProt Q8WVB6)	-0.0702	-0.117	-0.0426
AEBP2 (UniProt Q6ZN18)	-0.00304	-0.0576	-0.195
IDI1 (UniProt Q13907)	0.042	1.01	0.458
SMARCE1 (UniProt Q969G3)	0.125	1.96	1.55
RPL10A (UniProt P62906)	0.27	0.849	0.534
MCAT (UniProt Q8IVS2)	1.17	0.313	0.162
TRAPPC6B (UniProt Q86SZ2)	-0.511	-0.428	-1.19
UBA52 (UniProt P62987)	-0.00358	1.26	1.15
NIT2 (UniProt Q9NQR4)	0.0727	0.25	0.109
CALR (UniProt P27797)	0.147	-4.25	-3.48
PDCL3 (UniProt Q9H2J4)	-0.174	-0.0813	0.0164
MRPL20 (UniProt Q9BYC9)	-0.00694	0.411	0.239
M6PR (UniProt P20645)	0.167	0.401	-0.0131
SEC63 (UniProt Q9UGP8)	-0.767	-1.11	-0.484
THOC7 (UniProt Q6I9Y2)	-0.26	0.192	0.175
FAF2 (UniProt Q96CS3)	-0.262	-0.435	-0.684
DAGLB (UniProt Q8NCG7)	0.0163	0.268	0.278
UNC45A (UniProt Q9H3U1)	0.158	-0.649	-0.167
ACAD8 (UniProt Q9UKU7)	-0.989	0.0722	-0.0632
PIK3C3 (UniProt Q8NEB9)	-0.484	-0.102	-0.206
TPP2 (UniProt P29144)	0.194	0.657	0.44
NUCB1 (UniProt Q02818)	-0.222	-0.169	-0.102
ABCB6 (UniProt Q9NP58)	-0.252	-0.585	-0.323

Target	thermal stability z-score [1]	thermal stability z-score [2, 3]	thermal stability z-score ([2]; arsenate co-treatment: none)
HSD17B12 (UniProt Q53GQ0)	0.614	0.28	0.0767
RAD51AP1 (UniProt Q96B01)	-0.76	0.0622	-0.213
TAGLN (UniProt Q01995)	-1.55	-0.0305	1.13
PRIM1 (UniProt P49642)	-0.439	-0.361	-0.125
EFEMP1 (UniProt Q12805)	0.134	-3.26	-2.96
DNAJC9 (UniProt Q8WXX5)	-2.09	0.604	0.566
CCDC51 (UniProt Q96ER9)	-0.324	-0.68	-0.14
ATP2C1 (UniProt P98194)	-1.37	-1.04	-0.728
TMX1 (UniProt Q9H3N1)	-0.418	0.948	1.34
IPO5 (UniProt O00410)	-0.498	0.21	-0.103
PDCD6 (UniProt O75340)	0.623	1.77	0.818
FAM195A (UniProt Q9BUT9)	-0.164	0.00727	0.202
NAPA (UniProt P54920)	1.02	0.374	0.143
DDX42 (UniProt Q86XP3)	0.47	0.815	0.837
SRM (UniProt P19623)	-0.141	-0.392	-0.0266
CNOT2 (UniProt Q9NZN8)	1.62	-0.563	0.153
FAM210A (UniProt Q96ND0)	-0.189	-0.412	-0.508
CDC45 (UniProt O75419)	-0.457	0.0843	0.0302
PDHA1 (UniProt P08559)	-2.51	0.0392	0.295
CBSL|CBS	0.256	-1.81	-1.33
RASA2 (UniProt Q15283)	-0.334	-0.0591	-0.273
OXA1L (UniProt Q15070)	-0.251	-0.709	-0.369
GTPBP1 (UniProt O00178)	0.493	-0.325	-0.107
COG3 (UniProt Q96JB2)	2.95	1.88	2.29
EPS15 (UniProt P42566)	-0.469	-0.339	-0.0217
ACTR1B (UniProt P42025)	0.0363	1.04	0.945
CCDC58 (UniProt Q4VC31)	0.303	0.552	0.284
